Measured values published in article PMC10935503 (Acta Pharmaceutica Sinica. B, 2023).
≈ marks a conversion by molar mass, not a printed value.

How the values were obtained:
HIV-1 WT strain (IIIB) = test: Anti-HIV-1 activity in MT-4 cells, MTT method, WT strain IIIB; assay type: cell-based; details: Human immunodeficiency virus 1, IIIB, MT4, read-out: EC50 IIIB
[1] = system: HIV-1 K103N + Y181C (RES056); test: microbe, parasite or virus in culture; assay type: cell-based
HIV-1 L100I = test: microbe, parasite or virus in culture; assay type: cell-based
HIV-1 K103N = test: microbe, parasite or virus in culture; assay type: cell-based
HIV-1 Y181C = test: microbe, parasite or virus in culture; assay type: cell-based
HIV-1 Y188L = test: microbe, parasite or virus in culture; assay type: cell-based
HIV-1 E138K = test: microbe, parasite or virus in culture; assay type: cell-based
HIV-1 F227L + V106A = test: microbe, parasite or virus in culture; assay type: cell-based
[2] = Cytotoxicity in mock-infected MT-4 cells, MTT method; assay type: cell-based; details: human
HIV-1 RT = HIV-1 RT (Human immunodeficiency virus type 1 group M subtype B, UniProt P03366); test: HIV-1 RT inhibition assay; assay type: biochemical
CYP2C9 = CYP2C9 (Homo sapiens, UniProt P11712); test: Cytochrome P450 inhibition assay, CYP2C9; assay type: in vitro ADME
CYP2C19 = CYP2C19 (Homo sapiens, UniProt P33261); test: Cytochrome P450 inhibition assay, CYP2C19; assay type: in vitro ADME
hERG channel = hERG channel (Homo sapiens, UniProt Q12809); test: hERG channel inhibition assay, manual patch-clamp in HEK293 cells; assay type: cell-based; details: HEK293 cells stably transfected with hERG cDNA
[3] = In vivo pharmacokinetics in SD rats; design: species or system Sprague–Dawley (SD) rats
[4] = Single-dose acute toxicity in mice; assay type: in vivo; details: Kunming mice, single intragastric dose 2000 mg/kg, 7 days observation
[5] = system: main CYP enzymes (CYP1A2, CYP2C9, CYP2C19, CYP2D6, CYP3A4; range over isoforms); test: Cytochrome P450 inhibition assay, summary over isoforms; assay type: in vitro ADME; details: human, human liver microsomes
CYP2D6 = CYP2D6 (Homo sapiens, UniProt P10635); test: biochemical
CYP1A2 = molecular target: T1, CYP1A2 (Homo sapiens, UniProt P05177); test: Cytochrome P450 inhibition assay, CYP1A2
T1 sequence (P05177 1-516): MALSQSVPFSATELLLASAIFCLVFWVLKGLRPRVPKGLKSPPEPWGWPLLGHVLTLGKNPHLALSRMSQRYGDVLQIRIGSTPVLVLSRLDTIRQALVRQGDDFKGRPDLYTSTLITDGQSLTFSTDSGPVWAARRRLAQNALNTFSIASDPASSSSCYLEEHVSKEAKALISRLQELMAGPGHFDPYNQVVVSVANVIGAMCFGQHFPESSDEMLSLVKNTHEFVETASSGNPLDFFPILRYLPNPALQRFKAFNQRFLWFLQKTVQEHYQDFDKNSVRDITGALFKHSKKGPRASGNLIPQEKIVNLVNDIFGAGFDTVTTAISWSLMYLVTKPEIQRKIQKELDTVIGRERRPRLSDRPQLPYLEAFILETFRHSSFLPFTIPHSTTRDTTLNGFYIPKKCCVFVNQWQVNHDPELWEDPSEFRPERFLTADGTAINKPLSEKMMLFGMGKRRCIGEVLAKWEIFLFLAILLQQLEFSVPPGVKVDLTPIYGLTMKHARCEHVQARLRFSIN

CYP3A4 = CYP3A4 (Homo sapiens, UniProt P08684); test: Cytochrome P450 inhibition assay, CYP3A4
[6] = resistance fold, EC50 (mutant strain)/EC50 (WT strain)
[7] = selectivity index, ratio of CC50/EC50
[8] = Sprague-Dawley, rat, plasma, iv, 2 mg/kg
[9] = Sprague-Dawley, rat, plasma, po, 20 mg/kg

Sequence of CYP2C9 (P11712 whole entry): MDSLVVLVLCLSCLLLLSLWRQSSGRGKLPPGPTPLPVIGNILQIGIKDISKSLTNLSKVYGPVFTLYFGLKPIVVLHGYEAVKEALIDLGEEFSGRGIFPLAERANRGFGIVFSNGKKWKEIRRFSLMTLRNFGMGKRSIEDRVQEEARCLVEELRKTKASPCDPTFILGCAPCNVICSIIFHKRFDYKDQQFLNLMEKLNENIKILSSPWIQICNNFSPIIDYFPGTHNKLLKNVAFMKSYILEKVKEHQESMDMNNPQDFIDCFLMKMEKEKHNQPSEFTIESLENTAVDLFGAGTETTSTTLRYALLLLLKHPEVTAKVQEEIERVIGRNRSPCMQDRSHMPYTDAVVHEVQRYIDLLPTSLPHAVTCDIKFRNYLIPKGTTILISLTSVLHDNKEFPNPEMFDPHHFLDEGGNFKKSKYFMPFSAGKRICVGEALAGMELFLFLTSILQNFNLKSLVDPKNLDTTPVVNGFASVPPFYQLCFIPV
Sequence of CYP3A4 (P08684 whole entry): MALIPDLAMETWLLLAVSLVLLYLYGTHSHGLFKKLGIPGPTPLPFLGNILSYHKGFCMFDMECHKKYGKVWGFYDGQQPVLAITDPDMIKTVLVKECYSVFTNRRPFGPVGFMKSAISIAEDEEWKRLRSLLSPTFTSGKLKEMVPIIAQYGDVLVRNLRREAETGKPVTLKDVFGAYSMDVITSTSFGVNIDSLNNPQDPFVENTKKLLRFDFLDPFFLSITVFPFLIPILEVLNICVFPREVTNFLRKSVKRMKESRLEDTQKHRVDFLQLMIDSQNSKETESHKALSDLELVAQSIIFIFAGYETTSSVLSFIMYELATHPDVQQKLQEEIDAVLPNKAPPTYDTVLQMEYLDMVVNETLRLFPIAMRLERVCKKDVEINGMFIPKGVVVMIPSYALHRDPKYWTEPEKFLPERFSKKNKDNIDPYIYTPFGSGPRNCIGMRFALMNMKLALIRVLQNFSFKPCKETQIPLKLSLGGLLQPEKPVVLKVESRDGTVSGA
Sequence of hERG channel (Q12809 whole entry): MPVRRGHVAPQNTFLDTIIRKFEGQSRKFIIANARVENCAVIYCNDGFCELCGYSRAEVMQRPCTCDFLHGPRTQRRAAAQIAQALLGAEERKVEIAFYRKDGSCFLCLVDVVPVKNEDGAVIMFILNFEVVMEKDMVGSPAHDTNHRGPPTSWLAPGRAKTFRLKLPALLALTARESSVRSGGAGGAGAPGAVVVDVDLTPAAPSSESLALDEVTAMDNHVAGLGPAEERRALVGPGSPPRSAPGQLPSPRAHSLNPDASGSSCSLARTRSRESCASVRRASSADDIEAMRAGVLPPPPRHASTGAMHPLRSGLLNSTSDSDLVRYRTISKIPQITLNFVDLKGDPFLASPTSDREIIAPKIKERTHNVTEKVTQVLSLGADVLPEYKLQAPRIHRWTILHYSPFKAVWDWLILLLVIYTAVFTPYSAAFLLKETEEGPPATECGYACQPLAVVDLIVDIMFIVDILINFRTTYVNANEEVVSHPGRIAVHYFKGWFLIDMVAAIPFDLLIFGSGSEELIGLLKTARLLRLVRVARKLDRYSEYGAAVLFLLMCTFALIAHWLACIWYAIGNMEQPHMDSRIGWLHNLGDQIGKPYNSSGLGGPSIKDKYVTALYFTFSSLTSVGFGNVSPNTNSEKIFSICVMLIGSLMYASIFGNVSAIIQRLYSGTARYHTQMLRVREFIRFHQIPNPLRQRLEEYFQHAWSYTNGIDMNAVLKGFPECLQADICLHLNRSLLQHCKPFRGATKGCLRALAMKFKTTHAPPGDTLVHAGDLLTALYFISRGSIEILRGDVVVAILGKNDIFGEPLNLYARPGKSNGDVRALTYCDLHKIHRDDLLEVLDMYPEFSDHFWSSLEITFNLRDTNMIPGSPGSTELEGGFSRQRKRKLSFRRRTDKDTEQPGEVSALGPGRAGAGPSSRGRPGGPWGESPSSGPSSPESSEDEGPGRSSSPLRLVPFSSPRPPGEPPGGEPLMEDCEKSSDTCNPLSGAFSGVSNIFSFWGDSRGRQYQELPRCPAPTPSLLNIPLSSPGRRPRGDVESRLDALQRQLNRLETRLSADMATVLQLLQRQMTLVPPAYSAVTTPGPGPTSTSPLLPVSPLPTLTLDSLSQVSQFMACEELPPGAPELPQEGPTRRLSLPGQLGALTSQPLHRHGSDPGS
Sequence of CYP2D6 (P10635 whole entry): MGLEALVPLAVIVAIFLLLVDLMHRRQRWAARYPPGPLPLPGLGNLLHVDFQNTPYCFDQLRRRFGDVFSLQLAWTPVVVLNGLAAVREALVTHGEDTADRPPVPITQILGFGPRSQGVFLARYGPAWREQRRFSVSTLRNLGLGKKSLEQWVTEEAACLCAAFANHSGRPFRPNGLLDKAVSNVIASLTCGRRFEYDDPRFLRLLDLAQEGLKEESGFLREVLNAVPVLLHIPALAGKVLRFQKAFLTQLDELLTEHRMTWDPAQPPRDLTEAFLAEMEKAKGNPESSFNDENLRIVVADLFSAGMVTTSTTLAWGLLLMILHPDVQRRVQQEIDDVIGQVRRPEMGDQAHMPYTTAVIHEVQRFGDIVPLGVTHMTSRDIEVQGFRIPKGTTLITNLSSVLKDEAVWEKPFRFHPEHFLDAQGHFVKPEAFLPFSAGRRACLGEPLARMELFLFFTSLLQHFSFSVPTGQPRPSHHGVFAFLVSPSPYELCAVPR
Sequence of CYP2C19 (P33261 whole entry): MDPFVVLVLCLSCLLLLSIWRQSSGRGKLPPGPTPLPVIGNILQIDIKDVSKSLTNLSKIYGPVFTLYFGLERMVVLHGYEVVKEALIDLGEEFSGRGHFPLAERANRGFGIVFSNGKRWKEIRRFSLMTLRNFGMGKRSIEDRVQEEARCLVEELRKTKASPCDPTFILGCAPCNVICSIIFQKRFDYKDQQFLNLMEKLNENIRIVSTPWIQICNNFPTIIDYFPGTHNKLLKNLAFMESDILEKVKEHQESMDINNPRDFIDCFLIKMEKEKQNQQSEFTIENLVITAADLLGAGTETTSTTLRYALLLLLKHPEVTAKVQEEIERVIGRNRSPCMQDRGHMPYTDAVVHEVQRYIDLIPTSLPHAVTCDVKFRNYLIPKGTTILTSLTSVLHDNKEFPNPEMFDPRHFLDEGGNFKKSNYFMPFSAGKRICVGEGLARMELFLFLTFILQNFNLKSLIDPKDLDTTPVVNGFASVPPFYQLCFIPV

With `Cc1cc(/C=C/C#N)cc(C)c1Oc1nc(NC2CCN(Cc3ccc(S(N)(=O)=O)cc3)CC2)nc2c1SCCC2` [compound 23h, (E)-4-((4-((4-(4-(2-Cyanovinyl)-2,6-dimethylphenoxy)-7,8-dihydro-6H-thiopyrano[3,2-d]pyrimidin-2-yl)amino)piperidin-1-yl)methyl)benzenesulfonamide] the EC50 (HIV-1 WT strain (IIIB)) was 3.43 ± 2 nM, the EC50 ([1]; Human immunodeficiency virus 1, MT4, read-out: EC50 RES056) was 15.2 ± 9.44 nM and the “Fold greater potency than EFV, RES056” value ([1]; ratio of EC50 values vs EFV) was 7.5 fold. For the same compound, the “Fold greater potency than ETR, RES056” value ([1]; ratio of EC50 values vs ETR) was 2.3 fold, the “RF RES056” value [1, 6] was 4.4 and the “SI RES056” value [1, 7] was 218. For the same compound, the EC50 (HIV-1 L100I; Human immunodeficiency virus 1, MT4, read-out: EC50 L100I) was 4.46 ± 0.36 nM, the “Times greater activity than ETR, L100I” value (HIV-1 L100I; ratio of EC50 values vs ETR) was 2.0 times and the “RF L100I” value (HIV-1 L100I; [6]) was 1.3. The “SI L100I” value (HIV-1 L100I; [7]) was 742, the EC50 (HIV-1 K103N; Human immunodeficiency virus 1, MT4, read-out: EC50 K103N) was 6.13 ± 0.12 nM and the “RF K103N” value (HIV-1 K103N; [6]) was 1.8. For the same compound, the “SI K103N” value (HIV-1 K103N; [7]) was 540, the EC50 (HIV-1 Y181C; Human immunodeficiency virus 1, MT4, read-out: EC50 Y181C) was 8.46 ± 1.17 nM and the “Fold improvement in potency compared to ETR, Y181C” value (HIV-1 Y181C; ratio of EC50 values vs ETR) was 1.7 fold. For the same compound, the “RF Y181C” value (HIV-1 Y181C; [6]) was 2.5, the “SI Y181C” value (HIV-1 Y181C; [7]) was 391 and the EC50 (HIV-1 Y188L; Human immunodeficiency virus 1, MT4, read-out: EC50 Y188L) was 16.5 ± 5.18 nM. The “RF Y188L” value (HIV-1 Y188L; [6]) was 4.8, the “SI Y188L” value (HIV-1 Y188L; [7]) was 201 and the EC50 (HIV-1 E138K; Human immunodeficiency virus 1, MT4, read-out: EC50 E138K) was 21.4 ± 4.19 nM. The “RF E138K” value (HIV-1 E138K; [6]) was 6.2, the “SI E138K” value (HIV-1 E138K; [7]) was 155 and the EC50 (HIV-1 F227L + V106A; Human immunodeficiency virus 1, MT4, read-out: EC50 F227L + V106A) was 5.35 ± 0.69 nM. For the same compound, the “Fold better than EFV, F227L + V106A” value (HIV-1 F227L + V106A; ratio of EC50 values vs EFV) was 14.5 fold, the “Fold better than RPV, F227L + V106A” value (HIV-1 F227L + V106A; ratio of EC50 values vs RPV) was 15.3 fold and the “RF F227L + V106A” value (HIV-1 F227L + V106A; [6]) was 1.6. The “SI F227L + V106A” value (HIV-1 F227L + V106A; [7]) was 619, the CC50 at 5 days [2] was 3310 ± 1700 nM and the IC50 (HIV-1 RT) was 529 ± 142 nM. The IC50 (CYP2C9) was 3410 nM, the IC50 (CYP2C19) was 15600 nM and the IC50 (hERG channel) was 79 nM. The “V (iv)” value ([3]; SD rats, iv 2 mg/kg, mean ± SD, n = 3, 2 mg/kg) was 49.7 L/kg, the AUC(0-inf) [3, 8] was 1210 ± 78.9 ng·h/mL and the AUC(0-t) [3, 8] was 1150 ± 69.7 ng·h/mL. It also gave an MRT inf [3, 8] of 2.03 ± 0.41 h, an MRT last [3, 8] of 1.56 ± 0.17 h and a clearance [3, 8] of 277 mL/min/kg. For the same compound, the half-life [3, 8] was 2.09 ± 0.39 h, the bioavailability ([3]; Sprague-Dawley, rat, plasma, oral, 20 mg/kg) was 15.3% and the AUC(0-inf) [3, 9] was 1860 ± 1680 ng·h/mL. For the same compound, the AUC(0-t) [3, 9] was 1680 ± 1480 ng·h/mL, the Cmax [3, 9] was 333 ± 276 ng/mL and the MRT inf [3, 9] was 5.02 ± 0.48 h. For the same compound, the MRT last [3, 9] was 4.1 ± 0.12 h, the Tmax [3, 9] was 1.5 ± 0.87 h and the half-life [3, 9] was 3 ± 0.74 h. The “Death or signs of intoxication” value [4] was “no death or signs of intoxication”, the IC50 at 10 min [5] was 3410 to 50000 nM and the solubility (physchem; pH 2, aqueous buffer) was 161 µg/mL (≈ 273 µM). For the same compound, the solubility (physchem; pH 7, aqueous buffer) was 11.7 µg/mL (≈ 19.8 µM), the solubility (physchem; pH 7.4, aqueous buffer) was 3.04 µg/mL (≈ 5.15 µM) and the IC50 (CYP2D6) was 36800 nM. It also gave an IC50 (CYP1A2) greater than 50000 nM and an IC50 (CYP3A4) of 13500 nM.
